Assay results: patent US20250388565A1, “ESTROGEN RECEPTOR ALPHA DEGRADERS AND METHODS OF USE THEREOF” (Relay Therapeutics, Inc., priority 2022, published 2025)

Target: T1, ERα protein (HiBiT-tagged) in ESR1_HiBiT KI MCF7 cells (Homo sapiens, UniProt P03372)
T1 sequence (P03372 1-595): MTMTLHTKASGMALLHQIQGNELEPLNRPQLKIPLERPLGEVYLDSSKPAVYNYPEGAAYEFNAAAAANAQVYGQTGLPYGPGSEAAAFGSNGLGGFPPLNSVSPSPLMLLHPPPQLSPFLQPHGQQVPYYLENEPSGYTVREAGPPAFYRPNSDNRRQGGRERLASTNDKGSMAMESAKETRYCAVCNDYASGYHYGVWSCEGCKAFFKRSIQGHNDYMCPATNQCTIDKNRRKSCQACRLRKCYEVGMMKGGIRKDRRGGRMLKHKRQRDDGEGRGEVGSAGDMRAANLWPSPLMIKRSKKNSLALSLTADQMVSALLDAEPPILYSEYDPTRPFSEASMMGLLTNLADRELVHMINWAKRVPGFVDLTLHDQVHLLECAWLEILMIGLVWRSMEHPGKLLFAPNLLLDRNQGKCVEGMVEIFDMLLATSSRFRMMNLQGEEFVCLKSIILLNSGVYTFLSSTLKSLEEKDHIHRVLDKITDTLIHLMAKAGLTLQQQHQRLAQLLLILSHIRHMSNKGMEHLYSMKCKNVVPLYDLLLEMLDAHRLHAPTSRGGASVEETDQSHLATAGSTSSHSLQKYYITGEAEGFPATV
Assay: Nano Glo HiBiT Lytic Degradation Assay
Assay type: cell-based
Settings: 6 hours with compound, 14-point dose response 1:3, bell-shape curve fit, half-maximal effect of first Hill model, read-out: MCF7 ESR1 HiBiT - (DC50)
Description: Selected compounds of the present disclosure were tested in a Nano Glo HiBiT Lytic Degradation Assay to measure the level of ERα protein degradation in MCF7 cells.
Cell culture: ESR1_HiBiT KI MCF7 cells were maintained in growth media without antibiotics. Cells were maintained in exponential growth phase, between 40% and 90% confluency.
Cell seeding: Cells were counted using a Vi-Cell and seeded in a 384-well flat-bottom microplate (cell culture-treated) at 4000 cells/well in 25 μL of growth medium using a BioTek MultiFlo Multimode Dispenser. Plates were incubated for 24 h at 37° C., 5% CO2, >95% relative humidity.
Compound preparation: Compounds were screened as 14-point dose response curves 1:3 dilutions. DMSO is used as the vehicle control and all wells were normalized to the same final DMSO concentration (0.1% v/v). Compounds were dosed using an Echo Acoustic Liquid Handler, 25 nL of 1000× (10 mM top concentration) DMSO stock/well. Cells were incubated with compounds for 6 hours at 37° C., 5% CO2, >95% relative humidity. Each compound was run in duplicate.
Nano Glo HiBiT Lytic Degradation Assay: HiBiT-tagged ERα protein levels were quantified using a Nano Glo HiBiT Lytic Degradation Assay following the manufacturer's protocol. Briefly, the Nano-Glo® HiBiT Lytic Reagent was prepared by diluting the LgBiT Protein reagent (1:100) and the Nano-Glo® HiBiT Lytic Substrate (1:50) into Nano-Glo® HiBiT Lytic Buffer at room temperature. The 384-well microplate were equilibrated to room temperature and 25 μL of Nano-Glo® HiBiT Lytic Reagent was added to each well. Samples were mixed by placing the 384-well microplate on an orbital shaker for 10 minutes. Luminescence was measured using an EnVision 2105 Multimode Plate Reader.
Data processing and analysis: Background signal (wells containing growth medium without cells) was subtracted from individual relative light units (RLU) values and the resulting values were normalized to the DMSO control well values. Dose responses were analyzed with Genedata Screener® using a bell-shape curve fit and the concentrations corresponding to the half-maximal effect of the first Hill model were used as DC50 values.

| Structure (SMILES) | DC50 [nM] |
| --- | --- |
| O=C1CC[C@H](N2Cc3cc(N4CCN(CC5CCN(c6ccc([C@@H]7c8ccc(O)cc8C(F)(F)C[C@@H]7c7ccccc7)c(F)c6)CC5)CC4)ccc3C2=O)C(=O)N1 [Compound I-199, (S)-3-(5-(4-((1-(4-((1S,2S)-4,4-difluoro-6-hydroxy-2-phenyl-1,2,3,4-tetrahydronaphthalen-1-yl)-3-fluorophenyl)piperidin-4-yl)methyl)piperazin-1-yl)-1-oxoisoindolin-2-yl)piperidine-2,6-dione] | 0.33 |
| O=C1CCC(n2ncc3cc(N4CCN(CC5CCN(c6ccc([C@@H]7c8ccc(O)cc8CO[C@@H]7c7ccccc7)cc6)CC5)CC4)ccc32)C(=O)N1 (stereo partly drawn) [Compound I-398, 3-(5-(4-((1-(4-((3S,4R)-7-hydroxy-3-phenylisochroman-4-yl)phenyl)piperidin-4-yl)methyl)piperazin-1-yl)-1H-indazol-1-yl)piperidine-2,6-dione] | 0.83 |
| O=C1CCC(N2Cc3cc(C4CCN(CC5CCN(c6ccc([C@@H]7c8ccc(O)cc8CC[C@@H]7c7ccccc7)cc6)CC5)CC4)ccc3C2=O)C(=O)N1 (stereo partly drawn) [II-105] | ≥ 10000 |
| O=C1CCC(N2Cc3cc(N4CCN(CC5CCN(c6c(F)cc([C@@H]7c8ccc(O)cc8CC[C@@H]7C7CCCCC7)cc6F)CC5)CC4)ccc3C2=O)C(=O)N1 (stereo in doubt) [Compound I-159, (R)-3-(5-(4-((1-(4-((1R,2R)-2-cyclohexyl-6-hydroxy-1,2,3,4-tetrahydronaphthalen-1-yl)-2,6-difluorophenyl)piperidin-4-yl)methyl)piperazin-1-yl)-1-oxoisoindolin-2-yl)piperidine-2,6-dione] | 10 |
| C[C@H]1CCc2cc(O)ccc2[C@H]1c1ccc(N2CCC(CN3CCN(c4ccc5c(c4)CN([C@H]4CCC(=O)NC4=O)C5=O)CC3)CC2)cc1 [Compound I-124, (S)-3-(5-(4-((1-(4-((1R,2S)-6-hydroxy-2-methyl-1,2,3,4-tetrahydronaphthalen-1-yl)phenyl)piperidin-4-yl)methyl)piperazin-1-yl)-1-oxoisoindolin-2-yl)piperidine-2,6-dione] | 1 |
| O=C1CCC(c2ccc(N3CC[C@]4(CCN(CC5CCN(c6ccc([C@@H]7c8ccc(O)cc8C(F)(F)C[C@@H]7c7ccccc7)cc6)CC5)C4)C3)cc2)C(=O)N1 (single isomer, unassigned) [Compound I-281] | 0.51 |
| O=C1CC[C@H](N2Cc3cc(N4CCN(CC5CCN(c6ccc([C@@H]7c8ccc(O)cc8CO[C@@]78CCc7ccccc78)cc6)CC5)CC4)ccc3C2=O)C(=O)N1 [Compound I-77, (S)-3-(5-(4-((1-(4-((1S,4′R)-7′-hydroxy-2,3-dihydrospiro[indene-1,3′-isochroman]-4′-yl)phenyl)piperidin-4-yl)methyl)piperazin-1-yl)-1-oxoisoindolin-2-yl)piperidine-2,6-dione] | 0.2 |
| O=C1CC[C@H](N2Cc3cc(N4CCN(CC5CCN(c6ccc([C@H]7c8ccc(O)cc8C(F)(F)C[C@H]7c7ccc(F)cc7F)cc6)CC5)CC4)ccc3C2=O)C(=O)N1 [Compound I-319, (S)-3-(5-(4-((1-(4-((1S,2R)-2-(2,4-difluorophenyl)-4,4-difluoro-6-hydroxy-1,2,3,4-tetrahydronaphthalen-1-yl)phenyl)piperidin-4-yl)methyl)piperazin-1-yl)-1-oxoisoindolin-2-yl)piperidine-2,6-dione] | 108 |
| CC(C1CCN(c2ccc([C@@H]3c4ccc(O)cc4CC[C@@H]3c3ccccc3)cc2)CC1)N1CCN(c2ccc3c(c2)CN([C@H]2CCC(=O)NC2=O)C3=O)CC1 (single isomer, unassigned) [II-44] | 2 |
| C[C@H]1O[C@@H](C2CCCCC2)[C@@H](c2ccc(N3CCC(CN4CCN(c5ccc6c(c5)CN([C@H]5CCC(=O)NC5=O)C6=O)CC4)CC3)cc2)c2ccc(O)cc21 [Compound I-251, (S)-3-(5-(4-((1-(4-((1R,3S,4S)-3-cyclohexyl-7-hydroxy-1-methylisochroman-4-yl)phenyl)piperidin-4-yl)methyl)piperazin-1-yl)-1-oxoisoindolin-2-yl)piperidine-2,6-dione] | 44 |
| O=C1CC[C@H](N2Cc3cc(N4CCN(CC5CCN(c6ccc([C@H]7c8ccc(O)cc8C(F)(F)C[C@H]7c7ccccc7)cn6)CC5)CC4)ccc3C2=O)C(=O)N1 [Compound I-338, (3S)-3-[5-[4-[[1-[5-[(1R,2R)-4,4-difluoro-6-hydroxy-2-phenyl-tetralin-1-yl]-2-pyridyl]-4-piperidyl]methyl]piperazin-1-yl]-1-oxo-isoindolin-2-yl]piperidine-2,6-dione] | 10 |
| O=C1CC[C@H](N2Cc3cc(N4CCN(CC5CCN(c6ccc([C@H]7c8ccc(O)cc8C(F)(F)C[C@H]7c7ccc(C(F)(F)F)cc7)cc6)CC5)CC4)ccc3C2=O)C(=O)N1 [Compound I-330, (S)-3-(5-(4-((1-(4-((1S,2R)-4,4-difluoro-6-hydroxy-2-(4-(trifluoromethyl)phenyl)-1,2,3,4-tetrahydronaphthalen-1-yl)phenyl)piperidin-4-yl)methyl)piperazin-1-yl)-1-oxoisoindolin-2-yl)piperidine-2,6-dione] | 35 |
| O=C1CC[C@H](N2Cc3cc(N4CCN(CC5CCN(c6ccc([C@@H]7c8ccc(O)cc8CC[C@@H]7c7ccc8c(c7)CC8)cc6)CC5)CC4)ccc3C2=O)C(=O)N1 (single isomer, unassigned) [Compound I-57] | 7 |
| O=C1CC[C@H](N2Cc3cc(N4CCN(CC5CCN(c6ccc([C@@H]7c8ccc(O)cc8CCC78CCCCC8)cc6)CC5)CC4)ccc3C2=O)C(=O)N1 [Compound I-85, (S)-3-(5-(4-((1-(4-((R)-6′-hydroxy-3′,4′-dihydro-1′H-spiro[cyclohexane-1,2′-naphthalen]-1′-yl)phenyl)piperidin-4-yl)methyl)piperazin-1-yl)-1-oxoisoindolin-2-yl)piperidine-2,6-dione] | 0.64 |
| C[C@@H]1O[C@H](C2CCCCC2)[C@H](c2ccc(N3CCC(CN4CCN(c5ccc6c(c5)CN([C@H]5CCC(=O)NC5=O)C6=O)CC4)CC3)cc2)c2ccc(O)cc21 (single isomer, unassigned) [Compound I-205, (S)-3-(5-(4-((1-(4-((1*S,3*R,4*R)-3-cyclohexyl-7-hydroxy-1-methylisochroman-4-yl)phenyl)piperidin-4-yl)methyl)piperazin-1-yl)-1-oxoisoindolin-2-yl)piperidine-2,6-dione] | 0.79 |
| O=C1CC[C@H](N2Cc3cc(N4CCN(CC5CCN(c6ccc([C@H]7c8ccc(O)cc8C(F)(F)C[C@H]7c7cc(F)ccc7F)cc6)CC5)CC4)ccc3C2=O)C(=O)N1 [Compound I-317, (S)-3-(5-(4-((1-(4-((1S,2R)-2-(2,5-difluorophenyl)-4,4-difluoro-6-hydroxy-1,2,3,4-tetrahydronaphthalen-1-yl)phenyl)piperidin-4-yl)methyl)piperazin-1-yl)-1-oxoisoindolin-2-yl)piperidine-2,6-dione] | 3 |
| O=C1CCC(c2ccc(N3CCC4(CCN(CC5CCN(c6ccc([C@@H]7c8ccc(O)cc8C(F)(F)C[C@@H]7c7ccccc7)cc6)CC5)C4)CC3)cc2)C(=O)N1 (stereo partly drawn) [Compound I-308, 3-(4-(2-((1-(4-((1R,2S)-4,4-difluoro-6-hydroxy-2-phenyl-1,2,3,4-tetrahydronaphthalen-1-yl)phenyl)piperidin-4-yl)methyl)-2,8-diazaspiro[4.5]decan-8-yl)phenyl)piperidine-2,6-dione] | 0.65 |
| Cc1cc(N2CCC3(CCN(CC4CCN(c5ccc([C@@H]6c7ccc(O)cc7CO[C@@H]6c6ccccc6)cc5)CC4)C3)CC2)ccc1N1CCC(=O)NC1=O [Compound I-392, 1-(4-(2-((1-(4-((3S,4R)-7-hydroxy-3-phenylisochroman-4-yl)phenyl)piperidin-4-yl)methyl)-2,8-diazaspiro[4.5]decan-8-yl)-2-methylphenyl)dihydropyrimidine-2,4 (1H,3H)-dione] | 0.13 |
